Molecule `COCCNC(=NC#N)Nc1ccc(C2=NNC(=O)CC2C)cc1` (stereo not drawn) has a melting point of 196 to 197 °C. Work on `O=C(O)c1cc2cc(OC(F)F)ccc2nc1C(=O)O` yielded a melting point of 226 °C. In the case of `CCCCc1oc2ccccc2c1C(=O)c1cc(Br)c(O[C@H](Cc2ccccc2)C(=O)O)c(Br)c1`, the melting point is reported as 56 to 58 °C. For `Nc1ccc2nc3c(=O)[nH][nH]c(=O)c3c(O)c2c1`, the melting point was 219 to 221 °C. In the case of `CN1CCN(c2ccc(-n3c(-c4cc(-c5cnc6[nH]ccc6c5)ccn4)cn(C)c3=O)cc2C(F)(F)F)CC1`, the melting point is reported as 241 °C. Work on `O=C(O)C1=Cc2cc(-c3ccc(Cl)s3)ccc2OC1C(F)(F)F` (stereo not drawn) yielded a melting point of 205 to 206 °C. `CN(Cc1cc2c3c(c1)c(=O)c(C(=O)NCc1ccc(F)cc1)cn3CC(=O)N2C)C[C@@H](O)c1cnccn1` showed a melting point of 108 to 110 °C. Molecule `Cc1cc(Sc2ccc([N+](=O)[O-])cc2)cc(Br)n1` has a melting point of 124 to 126 °C. `CN(C)c1ncc(-c2cccc(-n3cnc4cc(-c5ccco5)ccc43)c2)cn1` showed a melting point of 170 to 172 °C. For `CNC(=O)C(=NOC)c1cc(C)c(C)cc1C(ON)=C(C)c1cccc(C(F)(F)F)c1`, the melting point was 129 to 134 °C. Work on `Cc1nnc(Cc2ccc(NC(=O)/C=C/c3cnn(C)c3-c3ccc(F)cc3)cc2)o1` yielded a melting point of 151 to 152 °C. Work on `CCCOc1ccc(S(=O)(=O)NCCc2c[nH]cn2)cc1-c1nc2cc(Cl)c([N+](=O)[O-])cc2c(=O)[nH]1` yielded a melting point of 140 to 144 °C. With `O=C1c2ccccc2C(=O)N1CC(O)c1cnc(-c2ccccc2)nc1-c1ccccc1` (stereo not drawn) the melting point was 149 to 159 °C. Molecule `CS(=O)(=O)C(=C1CN(C(c2ccccc2)c2ccccc2)C1)c1cc(Cl)ccc1Cl` has a melting point of 202 °C. With `O=c1[nH]c2ccccc2c2c(=O)n(-c3ccccc3)[nH]c12` the melting point was > 260 °C. `CCCCCCCCCC(=O)N[C@@H](C)C(=O)N[C@@H](Cc1ccccc1)C(=O)OC` showed a melting point of 120 to 122 °C. `CS(=O)(=O)c1ccc(C(CC2CCCC2)C(=O)Nc2nc3ccccc3[nH]2)cc1C#N` (stereo not drawn) showed a melting point of 148 to 152 °C. `Cc1ccncc1Cn1nnnc1-c1cccc(Cl)c1Cl` showed a melting point of 154 to 156 °C. In the case of `CC(C)c1cc(O)ccc1OCc1ccccc1`, the melting point is reported as 39 to 40 °C. With `O=C1CCCN1S(=O)(=O)c1ccc(N2CCOCC2)cc1` the melting point was 120 to 122 °C. With `N#Cc1ccc(CC(=O)Nc2cccc(C(=O)NCCC(=O)OCc3ccccc3)c2)cc1` the melting point was 98 to 99 °C. For `C[C@@H]1O[C@](C#CC2CC2)(C(F)(F)F)c2c(ccc3c2OCO3)NC1=O` (relative stereo), the melting point was 252 to 253 °C. `NCC1CCc2[nH]c3ccc(F)c(Cl)c3c2C1` (stereo not drawn) gave a melting point of 179 to 180 °C. In the case of `COc1c(OCc2ccc3ccccc3c2)cccc1C(=O)c1nccs1`, the melting point is reported as 100 °C. With `O=S(=O)(Cc1ccc(O)cc1)Cc1ccc(O)cc1` the melting point was 92 °C. With `C=C(C)C(=O)Nc1cccc(OC(=O)Nc2cccc3ccccc23)c1` the melting point was 195 to 196 °C. Molecule `OCc1cc2cc(O)c(Cl)c(Cl)c2s1` has a melting point of 167 to 169 °C. Work on `O=C1NC(=O)C(=Cc2cc(O)c(O)c(Cl)c2)S1` yielded a melting point of 299 to 301 °C. In the case of `CCCC(=O)Nc1cc(Oc2ccccc2)ccc1NC(=NC(=O)OCC)SC`, the melting point is reported as 118 °C. `O=C(NS(=O)(=O)c1ccc(Cl)cc1)N1CC(c2ccccc2)C(c2ccc(Cl)cc2)=N1` (stereo not drawn) gave a melting point of 211 to 214 °C. Work on `COC(=O)C(=O)c1ccc(OC/C=C/c2ccc(F)cc2)cc1` yielded a melting point of 84 to 85 °C. In the case of `O=C1C(=O)c2ccccc2C2=C1SCC1(CCN(CC(O)COc3ccc(Cl)cc3)CC1)O2` (stereo not drawn), the melting point is reported as 138 to 140 °C. Molecule `CC(=O)OCCCCN(C)CCN(C)C(=O)[C@@H]1CCCN1S(=O)(=O)c1ccc(Cl)c(COc2cccc3c(-n4ccnc4)cc(C)nc23)c1Cl` has a melting point of 76 °C. With `O=C(O)c1cc(-c2ccc3c(c2)CCO3)nn(CCCc2ccc(Cl)cc2)c1=O` the melting point was 157 to 160 °C. Molecule `CC(C)C1OC(=Nc2ccccn2)c2c1nc1c(C(F)(F)F)cccc1c2O` (stereo not drawn) has a melting point of 178 to 180 °C. In the case of `CCOC(=O)Nc1nn(C)c2cc(OCc3ccccc3)ccc12`, the melting point is reported as 204 °C. `Cc1c(N)nc(Cl)nc1Cl` gave a melting point of 193 to 194 °C. `CCOC(=O)c1cc(C)n(-c2cccc(C)c2)c1-c1ccccc1` showed a melting point of 92.5 to 94 °C. `CS(=O)(=O)c1cccc(NC(=O)c2cnn3c(C(F)F)cc(-c4ccc(Cl)c(Cl)c4)nc23)c1` showed a melting point of 262 °C. Work on `COc1cc(COc2cc(C=O)n(-c3ccccc3)n2)ccc1OCc1nc(-c2ccccc2)oc1C` yielded a melting point of 119 to 120 °C. For `Cc1c(F)c(=O)n(-c2cc(C(=O)OC(C)C)c(Cl)cc2F)c(=O)n1C`, the melting point was 112 to 115 °C. `COc1cc(OC)nc(Oc2ccccc2C(=O)OC(=O)c2ccccc2Oc2nc(OC)cc(OC)n2)n1` gave a melting point of 120 to 122 °C. `Cc1ccc(S(=O)(=O)N2CC(NC(=O)c3ccccc3)CC2C(=O)O)cc1` (stereo not drawn) showed a melting point of 120 to 125 °C. With `COC(=O)C(Br)c1ccc(S(C)(=O)=O)cc1` (stereo not drawn) the melting point was 81.8 to 83.3 °C. For `O=c1[nH]ccc2cc3cccnc3n12`, the melting point was 265 to 266 °C. With `COC(=S)NC[C@H]1CN(c2ccc(-c3nc(Cn4cncn4)cs3)c(F)c2)C(=O)O1` the melting point was 189 to 191 °C. In the case of `O=[N+]([O-])c1ccccc1NCc1ccco1`, the melting point is reported as 85.6 °C. With `O=C(Cc1ccccc1)N1CCCSC1=C[N+](=O)[O-]` the melting point was 121 to 122 °C. Work on `OCCOc1ccc2c(c1)oc1cc(Cl)ccc12` yielded a melting point of 118 to 120 °C. In the case of `OC1(CNCc2ccccc2)CCN(CCc2c[nH]c3ccc(-n4cnnc4)cc23)C1` (stereo not drawn), the melting point is reported as > 56 °C. `CN(CCO)c1ccncc1` gave a melting point of 90 to 91 °C. With `O=Cc1ccn(C2=CC3=C(CC2)CCc2[nH]c(=O)c(=O)n(CC(=O)O)c23)c1` the melting point was > 250 °C. For `COc1ccc(-c2ccc3ccc(NC(=O)c4ccccc4)nc3n2)cc1`, the melting point was 185 to 187 °C. In the case of `O=C1CC2CCc3ccncc3C2=NN1c1ccc(C(F)(F)F)cc1` (stereo not drawn), the melting point is reported as 141 to 142 °C. Molecule `Cn1c(=O)c(-c2ccc(Cl)cc2Cl)cc2c3cc(-c4ccn[nH]4)ccc3n(C)c21` has a melting point of 281 to 282 °C. For `CC1(C)CON(Cc2ccc(Nc3cc4ccccc4c(=O)o3)cc2)C1=O`, the melting point was 175 to 177 °C. Molecule `CCCCN(Cc1ccc(Cl)cc1)c1cncnc1` has a melting point of 67 to 68 °C. With `Cn1cc(CO)c(=O)c2ccc(Cl)cc21` the melting point was 204 to 206 °C. In the case of `COC(=O)c1cc(-c2cccc(Cl)c2)sc1N`, the melting point is reported as 85 to 87 °C. For `Cc1ccc(C)n1-c1ccc2ccc3[nH]c(=O)c(=O)n(CC(=O)Nc4ccccc4)c3c2c1`, the melting point was > 260 °C. With `CNc1cc(NS(=O)(=O)c2ccc(N)cc2)cc(C)n1` the melting point was 173 to 175 °C. `Cc1cccc(CNC(=O)c2ccc3n2Cc2ccccc2N(C(=O)COc2ccc(Cl)cc2)C3)c1` showed a melting point of 130 to 131 °C. Work on `Nc1cc(=O)n(Cc2cc(Cl)ccc2F)[nH]1` yielded a melting point of 160 °C. `COc1ccc(N2CCCn3c2nc2c(Cl)ccc(C(OCC(F)(F)F)C4CC4)c23)c(C)c1` (stereo not drawn) gave a melting point of 157 to 158 °C. For `O=C1C(=Cc2ccc([N+](=O)[O-])s2)CCc2cc(OCCn3ccnc3)ccc21`, the melting point was > 240 °C. Molecule `CNc1c(C)cc(C(C)(C)c2ccc(C(C)(C)c3cc(C)c(NC)c(C)c3)cc2)cc1C` has a melting point of 110 to 115 °C. With `O=c1cc(C(F)(F)F)[nH]c(=O)n1-c1ccc(Cl)cc1F` the melting point was 189 °C. `CC(CC#N)C(=O)c1ccc(C(=O)C(C)CC#N)cc1` (stereo not drawn) gave a melting point of 142 to 145 °C. `Clc1ccc2c(c1)N=C1C=CC=CN1CO2` gave a melting point of 175 to 177 °C. For `O=C(OCC(CO)(CO)COC(=O)c1ccccc1)c1ccccc1`, the melting point was 104 to 105 °C. For `O=C(O)c1csc(-c2ccccc2O)n1`, the melting point was 268 to 269 °C. `Cc1ccc(S(=O)(=O)Cc2c(C(F)(F)F)nn(C)c2O)cc1` showed a melting point of 135 °C. In the case of `O=C(O)C(CBr)N(C(=O)c1ccccc1)N1C(=O)CCC1=O` (stereo not drawn), the melting point is reported as 174 to 177 °C. With `Cc1cccc2c1nc(COc1ccc(Cl)cc1)n2CCC(C)CNCc1ccccc1` (racemic) the melting point was 84.5 to 87 °C. In the case of `O=C1NC(=O)c2c1cnc1[nH]ncc21`, the melting point is reported as 285 to 300 °C. Work on `O=C(O)C(Cc1ccccc1)CS(=O)C1CCCCC1` (stereo not drawn) yielded a melting point of 153 to 154 °C. `CC(C)CCNc1nc(N2CCCCC2)nc2c(NCCC(C)C)nc(N3CCCCC3)nc12` showed a melting point of 192 to 194 °C. For `COc1ccc(C(O)Cc2c(Cl)cncc2Cl)cc1OC1CCCC1` (stereo not drawn), the melting point was 124 to 125 °C. Work on `COc1ccc(CNc2c(C)c(C)c3oc(C)c(-c4ccc(F)cc4)c3c2C)cc1` yielded a melting point of 100 to 102 °C. For `CC(C)(C)c1cc2c(c(C(C)(C)C)c1)OC(=O)C2=O`, the melting point was 165 to 168 °C. Work on `Cc1nc(N2CCN(C(=O)c3ccc(F)cc3)C2=O)sc1C(=O)NCc1ccccc1` yielded a melting point of 130 to 132 °C. Work on `O=C(COc1ccc(Cl)cc1Cl)OCCOC(=O)c1cc(Oc2ccc(C(F)(F)F)cc2Cl)ccc1[N+](=O)[O-]` yielded a melting point of 111 to 118 °C. `Cc1oc(-c2ccccc2)nc1C(O)COc1ccc(N)cc1` (stereo not drawn) gave a melting point of 139 to 140 °C. For `CCCC(=O)c1cnc2c(OC)cccc2c1Nc1ccccc1C`, the melting point was 215 to 217 °C. Molecule `CCCCc1nc2c(C(F)(F)F)cccc2c(O)c1C(=O)OCC` has a melting point of 68 to 69 °C. In the case of `COc1ccc(S(=O)(=O)N2C(=O)[C@@](c3ccccc3OC)(N3C[C@H](OC(=O)N(C)C)C[C@H]3C(=O)N(C)C)c3cc(Cl)ccc32)c(OC)c1`, the melting point is reported as 138 to 140 °C. Molecule `CCCCNC1NC(=O)N(c2cccc(C(F)(F)F)c2)C(=O)N1` has a melting point of 245 to 247 °C. Work on `CCCCCCCCCCCCCCCCOc1ccc(O)cc1` yielded a melting point of 87 to 88 °C. In the case of `CCOC(=O)c1ccc2c(c1)C(=O)C(=O)N2`, the melting point is reported as 205 to 206 °C. Work on `COc1cc2c(c(Cl)c1Cl)C(=O)C(C)(C)C2(C)c1ccccc1` (stereo not drawn) yielded a melting point of 189 to 190 °C. For `CCC1Cc2cc(OCC#N)c(Cl)c(Cl)c2C1=O` (stereo not drawn), the melting point was 139 to 141 °C. In the case of `CN1CCN(c2ccc(-c3cnn4c(N)c(-c5ccccc5Cl)cnc34)cc2)CC1`, the melting point is reported as 197 to 200 °C. Work on `N#Cc1ccc2c(c1)Sc1ccc(Cl)cc1C=C2` yielded a melting point of 207 to 210 °C. Work on `Cn1cc(-c2nc3c(N[C@H]4[C@@H](C(N)=O)[C@@H]5C=C[C@H]4C5)c(Br)cnc3[nH]2)cn1` yielded a melting point of 255 to 258 °C. In the case of `Cc1ncc([N+](=O)[O-])n1CCN1C(=O)CC(C)(C)CC1=O`, the melting point is reported as 153 to 154 °C. In the case of `CC(C(=O)NO)C(=O)N(c1ccccc1)c1ccccc1` (stereo not drawn), the melting point is reported as 171 to 172 °C. For `O=C1OC(Cc2ccccc2)=NC1=Cc1cccs1`, the melting point was 193 to 195 °C. In the case of `CS(=O)c1ccc(-c2coc3ccc(-c4nnc(S)o4)cc23)cc1` (stereo not drawn), the melting point is reported as 234 to 235 °C.
